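The compound was tested at five concentrations on cells cultured in 96-well plates, with a 48-hour exposure period. GI50 is the concentration that inhibits growth by half.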 Active and inactive are the calls of the source. Cut-off read from the data, not from the text of the source: active = GI50 up to about 1.1 µM and inactive = higher.
What was measured:
Assay in all cases: inhibition of tumour cell growth, NCI panel, 48 h
[1] = tested on: NCI/ADR-RES
[2] = tested on: SF-295
[3] = tested on: SK-MEL-2
[4] = tested on: SK-MEL-28
[5] = tested on: T47D
[6] = tested on: UO-31
[7] = tested on: SNB-75
[8] = tested on: MDA-MB-231
[9] = tested on: OVCAR-8
[10] = tested on: RPMI-8226
[11] = tested on: UACC-62
[12] = tested on: KM12
[13] = tested on: SNB-19
[14] = tested on: ACHN
[15] = tested on: SW-620
[16] = tested on: TK-10
[17] = tested on: A549
[18] = tested on: MDA-MB-435
[19] = tested on: SN12C
[20] = tested on: NCI-H460

CCC1c2[nH]c3ccccc3c2C[C@H]2C(=O)NC(C)C(=O)N12 (some centres undefined)
GI50 [1]: > 100 µM (inactive) | GI50 [2]: > 100 µM (inactive) | GI50 [3]: > 100 µM (inactive) | GI50 [4]: > 100 µM (inactive) | GI50 [5]: > 100 µM (inactive) | GI50 [6]: > 100 µM (inactive) | GI50 [7]: 23.7 µM (inactive) | GI50 [8]: > 100 µM (inactive) | GI50 [9]: > 100 µM (inactive) | GI50 [10]: > 100 µM (inactive) | GI50 [11]: > 100 µM (inactive) | GI50 [12]: > 100 µM (inactive) | GI50 [13]: > 100 µM (inactive) | GI50 [14]: > 100 µM (inactive) | GI50 [15]: > 100 µM (inactive) | GI50 [16]: > 100 µM (inactive) | GI50 [17]: > 100 µM (inactive) | GI50 [18]: > 100 µM (inactive) | GI50 [19]: > 100 µM (inactive)

CC(O)c1cc2c(s1)C(=O)c1ccsc1C2=O (centres undefined)
GI50 [1]: 0.211 µM (active) | GI50 [2]: 0.0467 µM (active) | GI50 [3]: 0.126 µM (active) | GI50 [4]: 0.0216 µM (active) | GI50 [5]: 0.316 µM (active) | GI50 [6]: 0.212 µM (active) | GI50 [7]: 0.0649 µM (active) | GI50 [8]: 0.0964 µM (active) | GI50 [9]: 0.22 µM (active) | GI50 [10]: 0.123 µM (active) | GI50 [11]: 0.0262 µM (active) | GI50 [12]: 0.508 µM (active) | GI50 [13]: 0.241 µM (active) | GI50 [14]: 0.117 µM (active) | GI50 [15]: 0.138 µM (active) | GI50 [16]: 0.461 µM (active) | GI50 [17]: 0.189 µM (active) | GI50 [18]: < 0.01 µM (active) | GI50 [19]: 0.104 µM (active)

CCOC(=O)C1(Cc2c[nH]c3ccccc23)C(O)CCCN1C(C)=O (centres undefined)
GI50 [1]: > 100 µM (inactive) | GI50 [2]: > 100 µM (inactive) | GI50 [3]: > 100 µM (inactive) | GI50 [4]: > 100 µM (inactive) | GI50 [5]: > 100 µM (inactive) | GI50 [6]: > 100 µM (inactive) | GI50 [7]: > 100 µM (inactive) | GI50 [8]: > 100 µM (inactive) | GI50 [9]: > 100 µM (inactive) | GI50 [10]: > 100 µM (inactive) | GI50 [20]: > 100 µM (inactive) | GI50 [11]: > 100 µM (inactive) | GI50 [12]: > 100 µM (inactive) | GI50 [13]: > 100 µM (inactive) | GI50 [14]: > 100 µM (inactive) | GI50 [15]: > 100 µM (inactive) | GI50 [16]: > 100 µM (inactive) | GI50 [17]: > 100 µM (inactive) | GI50 [18]: > 100 µM (inactive)

O=C(O)c1ccccc1/C=N\N=C1NCCCCN1
GI50 [1]: > 100 µM (inactive) | GI50 [2]: > 100 µM (inactive) | GI50 [3]: > 100 µM (inactive) | GI50 [5]: > 100 µM (inactive) | GI50 [6]: > 100 µM (inactive) | GI50 [7]: > 100 µM (inactive) | GI50 [8]: > 100 µM (inactive) | GI50 [9]: > 100 µM (inactive) | GI50 [10]: > 100 µM (inactive) | GI50 [20]: > 100 µM (inactive) | GI50 [11]: > 100 µM (inactive) | GI50 [12]: > 100 µM (inactive) | GI50 [13]: > 100 µM (inactive) | GI50 [14]: > 100 µM (inactive) | GI50 [15]: > 100 µM (inactive) | GI50 [16]: > 100 µM (inactive) | GI50 [17]: > 100 µM (inactive) | GI50 [18]: > 100 µM (inactive) | GI50 [19]: > 100 µM (inactive)

C[N+]1([O-])[C@H]2CC(OC(=O)[C@H](CO)c3ccccc3)C[C@H]1[C@H]1O[C@H]12 (some centres undefined)
GI50 [1]: > 100 µM (inactive) | GI50 [2]: > 100 µM (inactive) | GI50 [3]: > 100 µM (inactive) | GI50 [4]: > 100 µM (inactive) | GI50 [5]: > 100 µM (inactive) | GI50 [6]: > 100 µM (inactive) | GI50 [7]: > 100 µM (inactive) | GI50 [8]: > 100 µM (inactive) | GI50 [9]: > 100 µM (inactive) | GI50 [10]: > 100 µM (inactive) | GI50 [11]: > 100 µM (inactive) | GI50 [12]: > 100 µM (inactive) | GI50 [13]: > 100 µM (inactive) | GI50 [14]: > 100 µM (inactive) | GI50 [15]: > 100 µM (inactive) | GI50 [16]: > 100 µM (inactive) | GI50 [17]: > 100 µM (inactive) | GI50 [18]: > 100 µM (inactive) | GI50 [19]: > 100 µM (inactive)

C/C1=C\[C@@H](O)C(=O)/C=C/C=C\c2csc(n2)[C@@H](C)NC(=O)C[C@@]2(CC1)[S+]([O-])SC(=O)[C@]2(C)O (some centres undefined) [LEINAMYCIN]
GI50 [1]: 0.0137 µM (active) | GI50 [2]: 0.0446 µM (active) | GI50 [3]: 0.00601 µM (active) | GI50 [4]: 0.0214 µM (active) | GI50 [5]: 0.00102 µM (active) | GI50 [6]: 0.0308 µM (active) | GI50 [7]: 0.0252 µM (active) | GI50 [8]: 0.0321 µM (active) | GI50 [9]: 0.0174 µM (active) | GI50 [10]: 0.00445 µM (active) | GI50 [20]: 0.00986 µM (active) | GI50 [11]: 0.0124 µM (active) | GI50 [12]: 0.0813 µM (active) | GI50 [13]: 0.284 µM (active) | GI50 [15]: 0.00204 µM (active) | GI50 [16]: 0.0266 µM (active) | GI50 [17]: 0.12 µM (active) | GI50 [18]: 0.0187 µM (active) | GI50 [19]: 0.0203 µM (active)
